Experimental data from patent US8119599B2, “Direct application of non-toxic crosslinking reagents to resist progressive spinal degeneration and deformity” (Orthopeutics, L.P., priority 2001, dated 2012).
Where “and” joins values, the source holds several entries; their conditions need not be identical. Equal entries are not always repeated.

Experiments:
[1] = system: calf spine segments (intervertebral disc annular tissue); experiment: Four-point lateral bending test of spine segments after unilateral injection of crosslinking reagent; settings: for Change in Stiffness: Compression side / Change in Stiffness: Tensionon side: neutral zone bending stiffness versus pre-treatment control; for Change in Stiffness: Compression side: treated side in compression; for Change in Stiffness: Tensionon side / Loss of Hysteresis: treated side in tension; for Loss of Hysteresis: versus pre-treatment control of same specimen
Text: Experiments utilized 5 calf spine segments, each segment comprised of 3 lumbar intervertebral joints (motion segments), four vertebrae and the intervening 3 discs. The pedicles were cut and the posterior processes removed. The segments were randomly divided into a 0.33% by weight genipin crosslinked group, a 0.5% genipin group, a 0.66% genipin group, and a 0.66% genipin plus 0.1% proanthocyanidin group. Each group consisted of one 3 motion segment specimen. Each pre-treated spine served as its own control. Repeated testing was performed on some untreated and treated specimens to determine repeatability of the measurements. Additional appropriate concentrations and combinations of known minimally cytotoxic crosslinking reagents will be chosen based on the documented cytotoxicity of a particular tissue. […] Similar testing will be conducted on fresh-non-frozen animal tissue with appropriate sterilization procedures and antibiotics to prevent tissue degradation. Sugar solutions will be injected unilaterally into fresh intervertebral discs to induce non-enzymatic glycation crosslinks over a period of sterile incubation.
Four-point lateral bending tests were conducted using an MTS 858 materials testing system with custom fixtures while load and displacement were recorded digitally. First the specimens were cleaned of muscle and other non-load supporting tissues, and then the terminal vertebrae were potted in polyurethane to half their height in square molds. The potted spine segments are then placed on the bottom 2 rollers such that the lateral sides of the spines were positioned in a vertical plane. The bending load was actuated by 2 upper rollers in contact with the central two vertebrae of the segment. Care was taken to ensure that the pre- and post-treatment positioning of the specimens on the rollers was similar. As an attribute of 4-point bending, the central region of the test specimen, including the central disc between the 2 upper rollers, has an […] bending moment. A ramp load to 100 N (0.5 mm/s) was applied in right and left lateral bending to each spine both prior to treatment and after crosslinking treatment.
The crosslinking reagents were delivered to each of the discs in each spine specimen by 2 to 3 injections into one lateral side of the spine. Each injection was comprised of 1 cc of reagent. A 26 gauge hypodermic needle was used. The treated segments were allowed to sit in a closed container wrapped in moist paper towels for 36 hours prior to final testing. After testing, the discs were cut transversely to visually document the region of the tissue contacted by the reagents.
Resistance to lateral bending and lateral bending stability were assessed by two measures, one elastic-plastic, the other viscoelastic. The first was the neutral zone (low-load) bending stiffness evidenced by the amount of deformation from 0.1 to 100 N of deforming force. The second was the hysteresis or bending energy lost or not stored by the tissues. Less hysteresis, or a lower percentage of hysteresis compared to strain energy or the amount of bending energy stored and returned, corresponds to greater capacity to bounce back from a bend rather than remain in the deformed position. It also reflects a more elastic, spring-like response as compared to a more viscous response.

[2] = system: posterior intervertebral disc (lumbar intervertebral joints); experiment: Indentation stress relaxation of posterior annulus before and after compression/flexion fatigue cycling; parameters: species or system calf; settings: for change in relaxation due to 6000 fatigue cycles versus controls (fatigue resistance): 72 hours soaking (G1 0.033%, G2 0.33% Genipin in PBS), 6000 cycles at 200 N, 0.25 Hz; for initial pre-fatigue relaxation less than the pre-fatigue relaxation of the controls: 72 hours soaking in PBS with Genipin (G1 0.033%, G2 0.33%), before fatigue cycling
Protocol: (§1) Thirty-three lumbar intervertebral joints were obtained from ten four-month-old calf spines. The intervertebral joints were arbitrarily divided into 3 groups: untreated controls-12 specimens, Genipin treatment 1 (G1)-6 specimens, and Genipin treatment 2 (G2)-13 specimens. The G1 treatment involved 72 hours of soaking the whole specimen in PBS with a 0.033% concentration of Genipin. Similarly the G2 treatment involved 72 hours of soaking whole specimens in PBS with 0.33% concentration of Genipin. 0.33% Genipin in PBS is produced by dilution of 50 ml of 10 times. PBS (Phosphate Buffered Saline) with distilled water by a factor of 10 to give 500 ml (500 gm) of PBS and mixing in 1.65 grams of genipin to produce the 0.33% (wt %, gm/gm) solution. […] Some controls were not subjected to soaking prior to fatigue testing. Others were soaked in a saline solution for 72 hours. Water mass loss experiments were conducted to establish the equivalency of outer annulus hydration between the genipin soaked and 0.9% saline soaked controls. The selection of treatments was randomized by spine and level. The vertebral ends of the specimens were then potted in polyurethane to facilitate mechanical testing. At the prescribed points in the loading regimen, indentation testing was used to find viscoelastic properties as follows. Stress relaxation data was gathered by ramp loading the 3 mm diameter hemi-spherical indenter to 10 N and subsequently holding that displacement for 60 s, while recording the resulting decrease in stress, referred to as the stress relaxation. Indentation testing was also utilized to determine elastic-plastic properties by calculating a hardness index (resistance to indentation) from ramp loading data. Prior to recording hardness measurements, the tissue is repeatedly indented 10 times (60 s/cycle, to the displacement at an initial 10 N load). This test protocol is based on two principles. First, viscoelastic effects asymptotically decrease with repeated loading. Secondly, hardness measurements are sensitive to the loading history of the tissue. However this effect becomes negligible following 10 loading cycles. In order to minimize these effects, viscoelastic data (stress relaxation) was collected from tissue that had not previously been indented. Alternately, elastic-plastic data (hardness) was collected from tissue that had been repeatedly loaded (preconditioned). In this case, repetitive indentation was intended to reduce the undesired effects of the changing viscoelastic properties, namely lack of repeatability, on hardness measurements. These testing procedures were derived from several preliminary experiments on the repeatability of the measurements with variations of loading history and location. Following initial indentation testing, the specimen was loaded repetitively in flexion-compression at 200 N for 3000 cycles at a rate of 0.25 Hz. The load was applied perpendicularly to the transverse plane, 40 mm anterior to the mid-point of the specimen in the transverse plane. A second set of indentation testing data is then collected following fatigue cycling. This procedure was followed for two fatigue loading cycles. During all testing, the specimens were wrapped in saline wetted gauze to maintain their moisture content. […] Several statistical measures were calculated to evaluate the significance of the results. […]

[3] = system: posterior intervertebral disc (lumbar intervertebral joints); experiment: Indentation hardness of posterior annulus before and after compression/flexion fatigue cycling; parameters: species or system calf
Protocol: as §1, with “measurements.” for “measurements. These testing procedures were derived from several preliminary experiments on the repeatability of the measurements with variations of loading history and location. Following initial indentation testing, the specimen was loaded repetitively in flexion-compression at 200 N for 3000 cycles at a rate of 0.25 Hz. The load was applied perpendicularly to the transverse plane, 40 mm anterior to the mid-point of the specimen in the transverse plane. A second set of indentation testing data is then collected following fatigue cycling. This procedure was followed for two fatigue loading cycles. During all testing, the specimens were wrapped in saline wetted gauze to maintain their moisture content.”

Row | Compound | Change in Stiffness: Compression side [1] | Change in Stiffness: Tensionon side [1] | Loss of Hysteresis [1] [%] | change in relaxation due to 6000 fatigue cycles versus controls (fatigue resistance) [2] | initial pre-fatigue relaxation less than the pre-fatigue relaxation of the controls [2] [%] | persistence of hardness improvement under fatigue cycling ([3]; 0.33% Genipin soak, up to 3000 fatigue cycles) | change in hardness between 3000 and 6000 cycles ([3]; G2: 0.33% Genipin, Brinnell's hardness index) | initial pre-fatigue hardness greater than that of the control group ([3]; G2: 72 hours soaking in PBS with 0.33% Genipin, before fatigue cycling) [%]
1 | COC(=O)C1=CO[C@@H](O)[C@@H]2C(CO)=CC[C@H]12 [0.33G, genipin] | 29% | 17% | 35 | – | – | – | – | –
2 | COC(=O)C1=CO[C@@H](O)[C@@H]2C(CO)=CC[C@H]12 [0.50G, genipin] | −12% and −22% | 8% and 0.43% | – | – | – | – | – | –
3 | COC(=O)C1=CO[C@@H](O)[C@@H]2C(CO)=CC[C@H]12 [0.66G, genipin] | 8% | 6% | 20 | – | – | – | – | –
4 | COC(=O)C1=CO[C@@H](O)[C@@H]2C(CO)=CC[C@H]12 [G1, Genipin] | – | – | – | did not bring about the same improvement in fatigue resistance | 26 | – | – | –
5 | COC(=O)C1=CO[C@@H](O)[C@@H]2C(CO)=CC[C@H]12 [G2, Genipin] | – | – | – | less than a third of the change in the controls | 19 | appears to have eroded prior to 3000 fatigue cycles | −0.94 | 17
